Assays:
Experiment in all cases: drug activity profiling cytotoxicity
Assay type in all cases: cell-based
[1] = test system: HCT-116; details: Homo sapiens; HCT-116 cell line, Colon; read-out: Aza-T-dCyd IC50
Experimental: (§1) To obtain a biomarker for Aza-T-dCyd, drug activity profiling analysis was performed to evaluate the cytotoxicity of 200 cell lines.
(§2) The drug responsiveness analysis of Aza-T-dCyd through drug activity profiling and genomic analysis of 200 cell lines confirmed the potent efficacy of Aza-T-dCyd in various solid tumors (Table 2).

[2] = test system: Daoy; details: Homo sapiens; Daoy cell line, CNS (Medulloblastoma); read-out: Aza-T-dCyd IC50
Experimental: as §1, §2

[3] = test system: Jurkat; details: Homo sapiens; Jurkat cell line, ALL; read-out: Aza-T-dCyd IC50
Experimental: as §1, §2

[4] = test system: ACHN; details: Homo sapiens; ACHN cell line, Kidney; read-out: Aza-T-dCyd IC50
Experimental: as §1, §2

[5] = test system: Daudi; details: Homo sapiens; Daudi cell line, Burkitt's lymphoma; read-out: Aza-T-dCyd IC50
Experimental: as §1, §2

[6] = test system: NU-DUL-1; details: Homo sapiens; NU-DUL-1 cell line, B-cell lymphoma; read-out: Aza-T-dCyd IC50
Experimental: as §1, §2

[7] = test system: Hs 729; details: Hs 729 cell line, Sarcoma; read-out: Aza-T-dCyd IC50
Experimental: as §1, §2

[8] = test system: SW480; details: Homo sapiens; SW480 cell line, Colon; read-out: Aza-T-dCyd IC50
Experimental: as §1, §2

[9] = test system: SW900; details: Homo sapiens; SW900 cell line, Lung (NSCLC); read-out: Aza-T-dCyd IC50
Experimental: as §1, §2

[10] = test system: BxPC-3; details: Homo sapiens; BxPC-3 cell line, Pancreas; read-out: Aza-T-dCyd IC50
Experimental: as §1, §2

[11] = test system: TCCSUP; details: Homo sapiens, TCC-SUP; TCCSUP cell line, Bladder; read-out: Aza-T-dCyd IC50
Experimental: as §1, §2

[12] = test system: PC-3; details: Homo sapiens; PC-3 cell line, Prostate; read-out: Aza-T-dCyd IC50
Experimental: as §1, §2

[13] = test system: BV-173; details: Homo sapiens; BV-173 cell line, CML; read-out: Aza-T-dCyd IC50
Experimental: as §1, §2

[14] = test system: HeLa; details: Homo sapiens; HeLa cell line, Female GU (Cervix); read-out: Aza-T-dCyd IC50
Experimental: as §1, §2

[15] = test system: AGS; details: Homo sapiens; AGS cell line, Stomach; read-out: Aza-T-dCyd IC50
Experimental: as §1, §2

[16] = test system: IM-9; details: Homo sapiens; IM-9 cell line, B-cell lymphoma; read-out: Aza-T-dCyd IC50
Experimental: as §1, §2

[17] = test system: SK-BR-3; details: Homo sapiens; SK-BR-3 cell line, Breast; read-out: Aza-T-dCyd IC50
Experimental: as §1, §2

[18] = test system: D283 Med; details: Homo sapiens; D283 Med cell line, CNS (Medulloblastoma); read-out: Aza-T-dCyd IC50
Experimental: as §1, §2

[19] = test system: MC116; details: Homo sapiens; MC116 cell line, B-cell lymphoma; read-out: Aza-T-dCyd IC50
Experimental: as §1, §2

[20] = test system: SK-N-FI; details: Homo sapiens; SK-N-FI cell line, CNS (Neuroblastoma); read-out: Aza-T-dCyd IC50
Experimental: as §1, §2

[21] = test system: SW872; details: Homo sapiens; SW872 cell line, Sarcoma; read-out: Aza-T-dCyd IC50
Experimental: as §1, §2

[22] = test system: HT-1197; details: Homo sapiens, HT1197; HT-1197 cell line, Bladder; read-out: Aza-T-dCyd IC50
Experimental: as §1, §2

[23] = test system: RPMI 6666; details: Homo sapiens; RPMI 6666 cell line, Hodgkin's lymphoma; read-out: Aza-T-dCyd IC50
Experimental: as §1, §2

[24] = test system: SJRH30; details: Homo sapiens; SJRH30 cell line, Sarcoma; read-out: Aza-T-dCyd IC50
Experimental: as §1, §2

[25] = test system: Caki-1; details: Homo sapiens; Caki-1 cell line, Kidney; read-out: Aza-T-dCyd IC50
Experimental: as §1, §2

[26] = test system: Capan-1; details: Homo sapiens; Capan-1 cell line, Pancreas; read-out: Aza-T-dCyd IC50
Experimental: as §1, §2

[27] = test system: HT-29; details: Homo sapiens; HT-29 cell line, Colon; read-out: Aza-T-dCyd IC50
Experimental: as §1, §2

[28] = test system: PFSK-1; details: Homo sapiens; PFSK-1 cell line, CNS (Glioma); read-out: Aza-T-dCyd IC50
Experimental: as §1, §2

[29] = test system: DLD-1; details: Homo sapiens; DLD-1 cell line, Colon; read-out: Aza-T-dCyd IC50
Experimental: as §1, §2

[30] = test system: SW1417; details: Homo sapiens; SW1417 cell line, Colon; read-out: Aza-T-dCyd IC50
Experimental: as §1, §2

[31] = test system: NALM-6; details: Homo sapiens; NALM-6 cell line, ALL; read-out: Aza-T-dCyd IC50
Experimental: as §1, §2

## Nc1ncn([C@H]2CC(O)[C@@H](CO)S2)c(=O)n1 (stereo partly shown) [Aza-T-dCyd, 4′-thio-5-aza-2′-deoxycytidine]
[1]
  IC50: 0.1 µM
[2]
  IC50: 3.61 µM
[3]
  IC50: 0.0695 µM
[4]
  IC50: 0.231 µM
[5]
  IC50: 0.451 µM
[6]
  IC50: 0.0245 µM
[7]
  IC50: > 10 µM
[8]
  IC50: 1.58 µM
[9]
  IC50: 1.98 µM
[10]
  IC50: 0.699 µM
[11]
  IC50: 1.18 µM
[12]
  IC50: 0.441 µM
[13]
  IC50: 0.00532 µM
[14]
  IC50: 1.81 µM
[15]
  IC50: 0.0584 µM
[16]
  IC50: 1.05 µM
[17]
  IC50: 9.32 µM
[18]
  IC50: 0.0688 µM
[19]
  IC50: 0.0297 µM
[20]
  IC50: 2.71 µM
[21]
  IC50: 0.73 µM
[22]
  IC50: 7.13 µM
[23]
  IC50: 1.05 µM
[24]
  IC50: 0.291 µM
[25]
  IC50: 0.0856 µM
[26]
  IC50: 3.32 µM
[27]
  IC50: 0.323 µM
[28]
  IC50: 7.61 µM
[29]
  IC50: 0.221 µM
[30]
  IC50: > 10 µM
[31]
  IC50: 0.0338 µM

From US12708630B2, “Combined therapy of 4′-thio-5-aza-2′-deoxycytidine and Venetoclax” (PINOTBIO, INC., priority 2021, dated 2026)
